Test results taken from ChEMBL document CHEMBL1156576, “Determination of log D via automated microfluidic liquid-liquid extraction” (J Med Chem, 2008).

Experiments:
[1] = physchem; settings: buffer, pH 7.4
[2] = physchem; settings: buffer, pH 7.4; remark: listed apart in the source
[3] = buffer, pH 7.4
[4] = buffer, pH 7.4; remark: listed apart in the source

SMILES	logD [1]	logD [2]	logD [3]	logD [4]
CCN(CC)CCNC(=O)c1ccc(N)cc1 [PROCAINAMIDE]	-0.94	-0.89	–	–
CN(C)CCC(c1ccc(Cl)cc1)c1ccccn1 (stereo not drawn) [CHLORPHENIRAMINE]	–	–	0.26	0.28
CC(=O)OCC(=O)[C@@]1(O)CC[C@H]2[C@@H]3CCC4=CC(=O)CC[C@]4(C)[C@H]3[C@@H](O)C[C@@]21C [HYDROCORTISONE ACETATE]	2.11	2.21	–	–
CC(=O)Nc1ccc(O)cc1 [ACETAMINOPHEN]	0.27	0.33	–	–
CCN(CC)CCNC(=O)c1cc(S(C)(=O)=O)ccc1OC [TIAPRIDE]	-0.9	-0.85	–	–
CC(C)N(CC[C@](C(N)=O)(c1ccccc1)c1ccccn1)C(C)C [(S)-DISOPYRAMIDE]	0.39	0.52	–	–
CN/C(=N/CCSCc1nc[nH]c1C)NC#N [CIMETIDINE]	0.29	0.34	–	–
NS(=O)(=O)c1cc(C2(O)NC(=O)c3ccccc32)ccc1Cl (stereo not drawn) [CHLORTHALIDONE]	0.85	0.94	–	–
CNC(=C[N+](=O)[O-])NCCSCc1ccc(CN(C)C)o1 [RANITIDINE]	-0.99	-0.91	–	–
